From patent US6608036B1, “Oligonucleotide N3′→P5′ thiophosphoramidates: their synthesis and administration to treat neoplasms” (Geron Corporation, priority 1999, dated 2003)
Where two headings read alike, the source gives them in different places.

Columns and labels:
[1] = tested on: telomerase (affinity-purified extract from 293 cells over-expressing hTERT); assay: Bio-Tel FlashPlate telomerase activity assay; format: biochemical, human; details: telomerase inhibition
[2] = tested on: complementary natural RNA oligomer; assay: Thermal dissociation (Tm) of duplexes with complementary RNA strand; format: binding; details: 150 mM NaCl; for Tm, melting temperature of the duplexes: 10 mM sodium phosphate buffer pH 7.4, ±0.5° C.
Protocol: ^31P NMR spectra were obtained on a Varian 400 Mhz spectrometer. ^31P NMR spectra were referenced against 85% aqueous phosphoric acid. Anion exchange HPLC was performed using a Dionex DX 500 Chromatography System, with a Pharmacia Bitotech Mono Q HR 5/5 or 10/16 ion exchange columns. Mass spectral analysis was performed by Mass Consortium, San Diego, Calif. MALDI-TOF analysis of oligonucleotides was obtained using a PerSpective Biosystems Voyager Elite mass spectrometer with delayed extraction. Thermal dissociation experiments were conducted on a Cary Bio 100 UV-Vis spectrometer.
Duplex formation properties of oligonucleotide phosphoramidates with complementary RNA strand were evaluated using thermal dissociation experiments. […] Also, the increase in the thermal stability of duplexes was similar to that observed for the phosphoramidate oligomers.

[3] = 40% aqueous acetic acid at room temperature
HME50-5E cells = assay: Reduction of telomere length in tumor cells (TRF analysis); format: cell-based, human; details: for telomere length by TRF analysis: about 0.5 μM, measured at 10, 20, 40 and 80 days (FIG. 7)
Protocol: Colonies of human breast epithelial cells (spontaneously immortalized) were prepared using standard methods and materials. Colonies were prepared by seeding 15-centimeter dishes with about 10^6 cells in each dish. The dishes were incubated to allow the cell colonies to grow to about 80% confluence, at which time each of the colonies were divided into two groups. One group was exposed to a subacute dose of thiophosphoramidate polynucleotide SEQ ID NO:2 at a predetermined concentration (e.g., between about 100 nM and about 20 μM) for a period of about 4-8 hours after plating following the split. The second group of cells were similarly exposed to mismatch control oligonucleotide SEQ ID NO:4.
Each group of cells is then allowed to continue to divide, and the groups are split evenly again (near confluence). The same number of cells were seeded for continued growth. The test thiophosphoramidate oligonucleotide or control oligonucleotide was added every fourth day to the samples at the same concentration delivered initially. In one experiment the cells were additionally treated with FuGENE6™ (Boehringer-Mannhiem) following manufacturers instructions. FuGENE6™ enhances oligonucleotide uptake by the cells.
Telomere length was determined by digesting the DNA of the cell samples using restriction enzymes specific for sequences other than the repetitive T2AG3 sequence of human telomeres (TRF analysis). The digested DNA was separated by size using standard techniques of gel electrophoresis to determine the lengths of the telomeric repeats, which appear, after probing with a telomere DNA probe, on the gel as a smear of high-molecular weight DNA (approximately 2 Kb-15 Kb). FIGS. 4 and 5 show examples of such experiments.
The HME50-5E cells were incubated with one of the thiophosphoramidate polynucleotides shown in SEQ ID NOs:2 and 8. The mismatch oligonucleotide SEQ ID NO:4 was used as a control. All polynucleotides were used at a concentration of about 0.5 μM using the protocol described above. The length of the telomeres were measured at 10, 20, 40 and 80 days. […] In addition to the HME50-5E cells described above, this assay can be performed with any telomerase-positive cell line, such as HeLa cells or HEK-293 cells.

[4] = thiophosphoramidate backbone, read-out: IC50(nM) thiophosphoramidate
[5] = phosphoramidate backbone, read-out: IC50(nM) phosphoramidate

**Q.** With “5′-GTTGAGTGTAG-3′ (listed as DNA, chemistry not fully specified) [SEQ ID NO:3 thiophosphoramidate]” as the substance, how does the IC50 [1, 4] read?
**A.** Its IC50 is 177 nM.

**Q.** With “5′-GTTAGGGTTAG-3′ (listed as DNA, chemistry not fully specified) [SEQ ID NO:1 thiophosphoramidate]” as the substance, how does the IC50 [1, 4] read?
**A.** Its IC50 is 0.89 nM.

**Q.** What about the “−Tm, increase of Tm relative to the natural phosphodiester counterpart” value ([2]; 10 mM sodium phosphate buffer pH 7.4, listed as SEQ ID NO:1 nps) of the same substance?
**A.** The value was 27.3 °C.

**Q.** What about the “Tm, melting temperature of the duplexes” value ([2]; listed as SEQ ID NO:1 nps) of the same substance?
**A.** The value was 71.5 °C.

**Q.** Which results are given for “5′-TAGGGTTAGACAA-3′ [SEQ ID NO:2 phosphoramidate]”?
**A.** Acid Stability, half-live of oligonucleotide ([3]; listed as SEQ ID NO:2 np): 0.5 h; −Tm, increase of Tm relative to the natural phosphodiester counterpart ([2]; 10 mM sodium phosphate buffer pH 7.4, listed as SEQ ID NO:2 np): 26.5 °C; Tm, melting temperature of the duplexes ([2]; listed as SEQ ID NO:2 np): 71.7 °C

**Q.** Which results are given for “5′-TAGGGTTAGACAA-3′ (thiophosphoramidate backbone, chemistry not fully specified) [SEQ ID NO:2 thiophosphoramidate]”?
**A.** IC50 [1, 4]: 0.41 nM; −Tm, increase of Tm relative to the natural phosphodiester counterpart ([2]; 10 mM sodium phosphate buffer pH 7.4): 24.8 °C; Tm, melting temperature of the duplexes [2]: 70.0 °C; telomere size compared to control cells (HME50-5E cells; HME50-5E cells coincubated with FuGENE6, even at lowest concentration tested (100 nM) (FIG. 4)): telomere size was reduced compared to the control cells; telomere length by TRF analysis (HME50-5E cells; HME50-5E cells): effective in reducing telomere length; telomere length (HME50-5E cells; HME50-5E cells, absence of FuGENE6, 1-20 μM (FIG. 4)): large decrease in telomere length; telomere length (inhibition of telomerase activity) (HME50-5E cells; treatment of HME50-5E human breast epithelial cells): decrease in telomere length

**Q.** For “5′-GTTGAGTGTAG-3′ (listed as DNA, chemistry not fully specified) [SEQ ID NO:3 phosphoramidate, N3′→P5′ phosphoramidate mismatch control, reference compound]”, which IC50 [1, 5] is on record?
**A.** The IC50 was 1000 nM.

**Q.** For “TAGGGTTAGACAA (DNA, all phosphodiester, methylation of C not given here) [SEQ ID NO:2 po, natural phosphodiester oligomer]”, which “Tm, melting temperature of the duplexes” value [2] is on record?
**A.** The value was 45.2 °C.

**Q.** With “5′-TAGGGTTAGACAA-3′ [SEQ ID NO:2 thiophosphoramidate] (thiophosphoramidate backbone, chemistry not fully specified)” as the substance, how does the “Acid Stability, half-live of oligonucleotide” value ([3]; listed as SEQ ID NO:2 nps) read?
**A.** Its value is 6 h.

**Q.** Which results are given for “5′-GTTAGGGTTAG-3′ (listed as DNA, chemistry not fully specified) [SEQ ID NO:1 phosphoramidate]”?
**A.** IC50 [1, 5]: 1.9 nM; −Tm, increase of Tm relative to the natural phosphodiester counterpart ([2]; 10 mM sodium phosphate buffer pH 7.4, listed as SEQ ID NO:1 np): 27.9 °C; Tm, melting temperature of the duplexes ([2]; listed as SEQ ID NO:1 np): 72.1 °C

**Q.** Which “Tm, melting temperature of the duplexes” value [2] does the source give for “GTTAGGGTTAG (unmodified DNA) [SEQ ID NO:1 po, natural phosphodiester oligomer]” here?
**A.** The value was 44.2 °C.

**Q.** What does the source list for “CAGTTAGGGTTAG (listed as DNA, chemistry not fully specified) [SEQ ID NO:8 thiophosphoramidate]”?
**A.** telomere length by TRF analysis (HME50-5E cells; HME50-5E cells): effective in reducing telomere length; telomere size compared to control cells (HME50-5E cells; even at lowest concentration tested (1 nM) (FIG. 5)): telomere size was reduced compared to the control cells

**Q.** For “5′-TAGGTGTAAGCAA-3′ (listed as DNA, chemistry not fully specified) [SEQ ID NO:4 phosphoramidate, N3′→P5′ phosphoramidate mismatch control, reference compound]”, which IC50 [1, 5] is on record?
**A.** Its IC50 is 1000 nM.

**Q.** For “5′-TAGGTGTAAGCAA-3′ (listed as DNA, chemistry not fully specified) [SEQ ID NO:4 thiophosphoramidate]”, which IC50 [1, 4] is on record?
**A.** Its IC50 is 79.3 nM.
